The text below walks through data of patent publication US9090570B2, “Compounds for inflammation and immune-related uses” (Synta Pharmaceuticals Corp., priority 2005, dated 2015).

pIC50: −log10 of the molar value. Where a name gives a salt, the structure may show the parent alone. Where only a bound is given, the exact number is not on record here.

The subject of the test is IL-2 production. Description: Inhibition of IL-2 production in PHA-activated Jurkat cells (ELISA). The format is cell-based. Particulars: Homo sapiens, PHA 2.5 μg/mL, IL-2 ELISA. As for the experimental part: Jurkat cells were placed in a 96 well plate (0.5 million cells per well in 1% FBS medium) then a test compound of this invention was added at different concentrations. After 10 minutes, the cells were activated with PHA (final concentration 2.5 μg/mL) and incubated for 20 hours at 37° C. under CO2. The final volume was 200 μL. Following incubation, the cells were centrifuged and the supernatants collected and stored at −70° C. prior to assaying for IL-2 production. A commercial ELISA kit (IL-2 Eli-pair, Diaclone Research, Besancon, France) was used to detect production of IL-2, from which dose response curves were obtained. The IC50 value was calculated as the concentration at which 50% of maximum IL-2 production after stimulation was inhibited versus a non-stimulation control.
In general terms: In an ELISA, binding on a coated surface is turned into a signal by an enzyme label.

The pIC50 is −log10 of the IC50, conventionally taken in molar units. Low readings indicate a large IC50, high ones a small IC50.

Under “20 hours”, `O=C(Nc1cnc(-c2cc(C(F)(F)F)ccc2Cl)cn1)c1c(F)cccc1F` [Compound 1, N-[5-(2-Chloro-5-trifluoromethyl-phenyl)-pyrazin-2-yl]-2,6-difluoro-benzamide] showed a pIC50 of 8.70.

`O=C(Nc1cnc(-c2cc(C(F)(F)F)ccc2Cl)cn1)c1ccncc1F` [Compound 2, N-[5-(2-Chloro-5-trifluoromethyl-phenyl)-pyrazin-2-yl]-3-fluoro-isonicotinamide] gave a pIC50 (20 hours) of 6.94. Against the preceding compound, the pIC50 is 1.76 log units lower.

Take `O=C(Nc1cnc(-c2cc(C(F)(F)F)ccc2Cl)cn1)c1c(F)cccc1F` [Compound 4, N-[5-(2-Chloro-5-trifluoromethyl-phenyl)-pyrazin-2-yl]-2,6-difluoro-benzamide hydrochloride]: the pIC50 (Jurkat, 20 h) is 8.22.

Compound `O=C(Nc1ccc(-c2cc(C(F)(F)F)ccc2Cl)nn1)c1c(F)cccc1F` [Compound 60, N-[6-(2-Chloro-5-trifluoromethyl-phenyl)-pyridazin-3-yl]-2,6-difluoro-benzamide] showed a pIC50 (20 hours) of less than 6.00.

Regarding `Cc1ccc(-c2ncco2)cc1-c1cnc(NC(=O)c2ccncc2F)cn1` [Compound 61, 3-Fluoro-N-[5-(2-methyl-5-oxazol-2-yl-phenyl)-pyrazin-2-yl]-isonicotinamide], the pIC50 (20 hours) is 7.30.

On to `Cc1cnccc1C(=O)Nc1cnc(-c2cc(-c3ncco3)ccc2C)cn1` [Compound 62, 3-Methyl-N-[5-(2-methyl-5-oxazol-2-yl-phenyl)-pyrazin-2-yl]-isonicotinamide], for which, for the setting “20 hours”, the pIC50 was 7.49.

Under “20 hours”, `Cc1ccc(-c2ncco2)cc1-c1cnc(NC(=O)c2c(F)cncc2F)cn1` [Compound 63, 3,5-Difluoro-N-[5-(2-methyl-5-oxazol-2-yl-phenyl)-pyrazin-2-yl]-isonicotinamide] showed a pIC50 of 7.73. This pIC50 lies 0.24 log units higher than the previous one.

`Cc1ccc(-c2ncco2)cc1-c1cnc(NC(=O)c2snnc2C)cn1` [Compound 64, 4-Methyl-[1,2,3]thiadiazole-5-carboxylic acid [5-(2-methyl-5-oxazol-2-yl-phenyl)-pyrazin-2-yl]-amide] showed a pIC50 (20 hours) of 7.26. This pIC50 is 0.47 log units lower than that of the compound before.

Under “20 hours”, `COC(=O)c1ccc(C)c(-c2cnc(NC(=O)c3ccncc3F)cn2)c1` [Compound 109, 3-{5-[(3-Fluoro-pyridine-4-carbonyl)-amino]-pyrazin-2-yl}-4-methyl-benzoic acid methyl ester] had a pIC50 of 7.31.

On to `COc1ccc(OC)c(-c2cnc(NC(=O)c3c(F)cccc3F)cn2)c1` [Compound 110, N-[5-(2,5-Dimethoxy-phenyl)-pyrazin-2-yl]-2,6-difluoro-benzamide], for which the pIC50 (20 hours) was 7.80. Compared with the last compound, the pIC50 is 0.49 log units higher.

Consider `Cc1ncccc1C(=O)Nc1cnc(-c2cc(C(F)(F)F)ccc2Cl)cn1` [Compound 111, N-[5-(2-Chloro-5-trifluoromethyl-phenyl)-pyrazin-2-yl]-2-methyl-nicotinamide], for which the pIC50 (20 hours) is 6.88. This pIC50 is 0.92 log units lower than that of the compound before.

In the case of `O=C(Nc1cnc(-c2cc(C(F)(F)F)ccc2Cl)cn1)C1CCCCC1` [Compound 112, Cyclohexanecarboxylic acid [5-(2-chloro-5-trifluoromethyl-phenyl)-pyrazin-2-yl]-amide], where the note is “20 hours”, the pIC50 is 7.65.

As to `COc1ccc(OC)c(-c2cnc(NC(=O)c3ccncc3F)cn2)c1` [Compound 113, N-[5-(2,5-Dimethoxy-phenyl)-pyrazin-2-yl]-3-fluoro-isonicotinamide], under “20 hours”, the pIC50 is 6.68.

In the case of `Cc1nnsc1C(=O)Nc1cnc(-c2cc(C(F)(F)F)ccc2Cl)cn1` [Compound 114, 4-Methyl-[1,2,3]thiadiazole-5-carboxylic acid [5-(2-chloro-5-trifluoromethyl-phenyl)-pyrazin-2-yl]-amide], for the setting “20 hours”, the pIC50 was 7.21.

For the setting “20 hours”, `O=C(Nc1cnc(-c2cc(C(F)(F)F)ccc2Cl)cn1)c1c(F)cncc1F` [Compound 115, N-[5-(2-Chloro-5-trifluoromethyl-phenyl)-pyrazin-2-yl]-3,5-difluoro-isonicotinamide] gave a pIC50 of 8.39. This pIC50 lies 1.18 log units higher than the previous one.

Where the note is “20 hours”, `O=C(Nc1ncc(-c2cc(C(F)(F)F)ccc2Cl)cn1)c1c(F)cccc1F` [Compound 116, N-[5-(2-Chloro-5-trifluoromethyl-phenyl)-pyrimidin-2-yl]-2,6-difluoro-benzamide] gave a pIC50 of 6.93.

For the compound `COc1ccc(OC)c(-c2cnc(NC(=O)c3ccncc3C)cn2)c1` [Compound 117, N-[5-(2,5-Dimethoxy-phenyl)-pyrazin-2-yl]-3-methyl-isonicotinamide], the pIC50 (20 hours) is 6.84. The pIC50 values of the last two compounds are within 0.2 log units of each other.

In turn, `COc1ccc(OC)c(-c2cnc(NC(=O)c3c(F)cncc3F)cn2)c1` [Compound 118, N-[5-(2,5-Dimethoxy-phenyl)-pyrazin-2-yl]-3,5-difluoro-isonicotinamide] showed a pIC50 (20 hours) of 7.47.

Take `COc1ccc(OC)c(-c2cnc(NC(=O)c3snnc3C)cn2)c1` [Compound 119, 4-Methyl-[1,2,3]thiadiazole-5-carboxylic acid [5-(2,5-dimethoxy-phenyl)-pyrazin-2-yl]-amide]: the negative-log IC50 (pIC50) (20 hours) was 6.52.

Regarding `COc1ccc(OC)c(-c2cnc(NC(=O)C3CCCCC3)cn2)c1` [Compound 120, Cyclohexanecarboxylic acid [5-(2,5-dimethoxy-phenyl)-pyrazin-2-yl]-amide], where the note is “20 hours”, the pIC50 is 6.45.

For the setting “20 hours”, `Cc1ccc(-c2ncco2)cc1-c1cnc(NC(=O)C2CCCCC2)cn1` [Compound 121, Cyclohexanecarboxylic acid [5-(2-methyl-5-oxazol-2-yl-phenyl)-pyrazin-2-yl]-amide] had a pIC50 of 7.41.

Regarding `O=C(Nc1cnc(-c2cc(C(F)(F)F)ccc2Cl)nc1)c1c(F)cccc1F` [Compound 122, N-[2-(2-Chloro-5-trifluoromethyl-phenyl)-pyrimidin-5-yl]-2,6-difluoro-benzamide], where the note is “20 hours”, the pIC50 is 6.18.
